From paper PMC4475420 (Chemistry & biology, 2015)
Each block holds one compound with its values, some of them ahead of it.

Assays:
Assay in all cases: PK/LDH coupled NADH oxidation assay, […] nm
Assay type in all cases: biochemical
Chimera-1 = conditions: 5 mM MgCl2, Tris-HCl pH 7.5
Chimera-2 = conditions: 5 mM MgCl2, Tris-HCl pH 7.5
OtsA(Sco) = biological target: T1, OtsA(Sco) (Streptomyces coelicolor, UniProt Q9KXV1); conditions: 5 mM MgCl2, Tris-HCl pH 7.5
T1 sequence (Q9KXV1 1-462): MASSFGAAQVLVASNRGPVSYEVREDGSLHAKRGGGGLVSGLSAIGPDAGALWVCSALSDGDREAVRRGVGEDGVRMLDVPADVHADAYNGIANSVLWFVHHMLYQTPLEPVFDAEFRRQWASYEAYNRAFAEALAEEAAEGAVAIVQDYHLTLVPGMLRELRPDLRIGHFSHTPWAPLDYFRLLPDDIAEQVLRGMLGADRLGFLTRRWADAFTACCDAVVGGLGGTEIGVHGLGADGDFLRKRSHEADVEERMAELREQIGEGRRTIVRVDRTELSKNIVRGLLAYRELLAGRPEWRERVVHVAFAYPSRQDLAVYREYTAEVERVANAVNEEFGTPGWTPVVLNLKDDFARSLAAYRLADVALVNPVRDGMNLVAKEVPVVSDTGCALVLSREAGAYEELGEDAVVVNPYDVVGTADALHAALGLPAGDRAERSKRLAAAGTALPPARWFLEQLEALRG

VldE = VldE (Streptomyces hygroscopicus, UniProt Q15JG1); conditions: 2 mM validamine 7-phosphate, 5 mM MgCl2, Tris-HCl pH 7.5
Sequence of VldE (Q15JG1 whole entry): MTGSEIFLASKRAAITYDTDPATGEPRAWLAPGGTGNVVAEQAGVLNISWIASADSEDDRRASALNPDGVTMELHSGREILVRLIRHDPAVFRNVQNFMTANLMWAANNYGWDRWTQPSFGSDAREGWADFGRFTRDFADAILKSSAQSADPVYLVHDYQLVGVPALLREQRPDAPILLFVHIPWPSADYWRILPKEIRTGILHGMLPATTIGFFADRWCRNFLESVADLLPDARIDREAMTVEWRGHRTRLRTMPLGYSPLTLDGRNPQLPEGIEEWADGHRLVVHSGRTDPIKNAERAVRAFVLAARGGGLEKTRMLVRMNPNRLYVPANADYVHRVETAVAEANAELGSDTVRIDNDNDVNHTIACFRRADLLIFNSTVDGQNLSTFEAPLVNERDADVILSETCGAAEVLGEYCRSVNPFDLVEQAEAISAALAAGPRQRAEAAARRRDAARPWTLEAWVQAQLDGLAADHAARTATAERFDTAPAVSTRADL

SMILES: Nc1nc2c(ncn2[C@@H]2O[C@H](COP(=O)(O)OP(=O)(O)O[C@H]3C=C(CO)[C@@H](O)[C@H](O)[C@H]3O)[C@@H](O)[C@H]2O)c(=O)[nH]1 [GDP-valienol]
- Km (Chimera-1; 2 mM validamine 7-phosphate): > 10 mM

SMILES: Nc1nc2c(ncn2[C@@H]2O[C@H](COP(=O)(O)OP(=O)(O)O[C@H]3O[C@H](CO)[C@@H](O)[C@H](O)[C@H]3O)[C@@H](O)[C@H]2O)c(=O)[nH]1 [GDP-glucose]
- Km (Chimera-1; 2 mM validamine 7-phosphate): 1.1 ± 0.07 mM
- Km (Chimera-2; 2 mM glucose 6-phosphate): 3.56 ± 0.38 mM
- Km (VldE): > 2.2 mM

Further lines, results first:

- Km (Chimera-1; 2 mM GDP-glucose): 0.975 ± 0.1 mM
SMILES: N[C@H]1C[C@H](COP(=O)(O)O)[C@@H](O)[C@H](O)[C@H]1O [validamine 7-phosphate]

- Km (Chimera-2; 2 mM GDP-glucose): 4.95 ± 0.7 mM
- Km (OtsA(Sco); 2 mM GDP-glucose): > 10 mM
SMILES: O=P(O)(O)OC[C@H]1C[C@H](O)[C@H](O)[C@@H](O)[C@@H]1O [validol 7-phosphate]

- Km (OtsA(Sco); 2 mM glucose 6-phosphate): > 4 mM
SMILES: Nc1ccn([C@@H]2O[C@H](COP(=O)(O)OP(=O)(O)O[C@H]3O[C@H](CO)[C@@H](O)[C@H](O)[C@H]3O)[C@@H](O)[C@H]2O)c(=O)n1 [CDP-glucose]

- Km (Chimera-2; 2 mM GDP-glucose): 6.44 ± 0.95 mM
SMILES: O=P(O)(O)OC[C@H]1OC(O)[C@H](O)[C@@H](O)[C@@H]1O (stereo partly drawn) [glucose 6-phosphate]
